Experimental data from publication PMC6352943, “Novel pyrazolo[3,4-d]pyrimidines: design, synthesis, anticancer activity, dual EGFR/ErbB2 receptor tyrosine kinases inhibitory activity, effects on cell cycle profile and caspase-3-mediated apoptosis” (Journal of Enzyme Inhibition and Medicinal Chemistry, 2019).
Values joined by “and” are separate entries in the source; they are usually repeats but may differ in a detail not shown here. Equal entries are not always repeated.

Experiments:
CAKI-1 = assay: NCI 60 cell line single dose screen (SRB); assay type: cell-based; conditions: Homo sapiens; CAKI-1 (renal cancer), single dose 10^−5 M, 48 h; read-out: Growth inhibition percentage
In short: (§1)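 Cells were plated and grown 24 h at 37 °C, 5% CO2 before compound addition from DMSO stock, then exposed 48 h. Adherent cells were fixed with cold TCA (final 10%) and suspension cells with 16% TCA. SRB-stained protein was read at 515 nm and percent growth was calculated against time-zero and untreated plates.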

UACC-62 = assay: NCI 60 cell line single dose screen (SRB); assay type: cell-based; conditions: Homo sapiens; UACC-62 (melanoma), single dose 10^−5 M, 48 h; read-out: Growth inhibition percentage
In short: as §1

NCI-H460 (EGFR-WT) = assay: MTT cell viability assay; assay type: cell-based, human
Method: All of the other chemicals and reagents were from Sigma, or Invitrogen.
Measure the background absorbance of multiwell plates at 690 nm and subtract from the 570 nm measurement. […] Each experiment was carried out in triplicate.

human active caspase-3 = assay: Active caspase-3 level (ELISA) in OVCAR-4 cells; assay type: cell-based; conditions: OVCAR-4 cells treated at IC50 for 24 h
Method: The level of human active caspase-3 protein was evaluated using Invitrogen (Catalog KHO1091) ELISA kit. The manufacturer’s instructions were followed in the following procedures. Add 100 μL of the standard diluent buffer to the zero standard wells. Add 100 μL of standards and controls or diluted samples to the appropriate microtitre wells. Cover wells with and incubate for 2 h at room temperature. Thoroughly aspirate or decant solution from wells and discard the liquid. Pipette 100 μL of caspase-3 (active) detection antibody solution into each well. Cover plate and incubate for 1 h at room temperature. Add 100 μL Anti-Rabbit IgG HRP working solution to each well. Cover wells with the plate cover and incubate for 30 min at room temperature. Add 100 μL of stabilised chromogen to each well. The liquid in the wells will begin to turn blue. Incubate for 30 min at room temperature. Stop solution has been added to each well. The solution in the wells should change from blue to yellow. Read the plate within 2 h after adding the stop solution. Use a curve fitting software to generate the standard curve.
EGFR and ErbB2 tyrosine kinase inhibitors are well known to potentiate the intrinsic apoptotic pathway via increase in caspase-3 enzyme activity[34]^,[35].

OVCAR-4 cells = assay: Cell cycle analysis by flow cytometry (PI); assay type: cell-based, human
Method: After treatment, the cells were washed twice with ice-cold PBS, collected by centrifugation, and fixed in ice-cold 70% (v/v) ethanol, washed with PBS, re-suspended with 0.1 mg/mL RNase, stained with […] propidium iodide (PI), and analysed by flow cytometry using FACS Calibur (Becton Dickinson)[31]. The cell cycle distributions were calculated using Cell-Quest software (Becton Dickinson).

[1] = OVCAR-4, 7d at IC50 (1.74 μM), 24 h

Cc1nn(-c2ccc(F)cc2)c2ncnc(Cl)c12 [Compound 6, 4-Chloro-1–(4-fluorophenyl)-3-methyl-1H-pyrazolo[3,4-d]pyrimidine]
inhibition at 10 µM (CAKI-1): 1.02%
inhibition at 10 µM (UACC-62): 12.6%

Cc1nn(-c2ccc(F)cc2)c2ncnc(Nc3ccc(F)c(Cl)c3)c12 [Compound 7d, N-(3-Chloro-4-fluorophenyl)-1–(4-fluorophenyl)-3-methyl-1H-pyrazolo[3,4-d] pyrimidin-4-amine]
IC50 (NCI-H460 (EGFR-WT); Homo sapiens, NCI-H460 (EGFR-WT) lung cancer, MTT, 48 h, mean ± SD of three experiments, read-out: IC50 (concentration required for 50% inhibition of cell viability)): 18.7 ± 0.71 µM
Potency relative to Erlotinib (fold more potent) (NCI-H460 (EGFR-WT); NCI-H460 EGFR-WT, from IC50 values): ~3.5 fold
Increase in the level of active caspase-3 compared to control (human active caspase-3): 10.8 fold and 11 fold
Caspase3 conc. (human active caspase-3; mean ± SD of three experiments): 568.50 ± 14.0 pg/mL
Cell cycle distribution %Apoptosis (pre-G1) (OVCAR-4 cells; [1]): 21.71%
Cell cycle distribution %G0/G1 (OVCAR-4 cells; [1]): 29.77%
Cell cycle distribution %G2/M (OVCAR-4 cells; [1]): 36.44%
Cell cycle distribution %S (OVCAR-4 cells; [1]): 33.79%
Increase in cells accumulated in pre-G1 phase compared to control (OVCAR-4 cells; OVCAR-4, at IC50, 24 h): ~11 folds
Increase in percentage of cells at G2/M phases compared to control (OVCAR-4 cells; OVCAR-4, at IC50, 24 h): 5 folds
